# ChEMBL document CHEMBL5532635, “The role of natural anti-parasitic guided development of synthetic drugs for leishmaniasis” (Eur J Med Chem, 2023)
# What was measured:
# Leishmania major [1] = test: Antileishmanial activity against Leishmania major promastigotes assessed as reduction in parasite growth incubated for 72 hrs by MTT assay; type: functional, organism-based
# Leishmania major [2] = test: Antileishmanial activity against Leishmania major amastigotes assessed as reduction in parasite growth incubated for 72 hrs by MTT assay; type: functional, organism-based
# Leishmania amazonensis [3] = test: Antileishmanial activity against Leishmania amazonensis promastigotes infected in BALB/c mouse assessed as reduction of IgG1 level at 400 mg/kg per day, ip administered for 30 days measured at 10 week by ELISA assay; type: functional, organism-based
# Leishmania major [4] = test: Antileishmanial activity against Leishmania major IR-173 amastigotes assessed as parasite growth inhibition incubated for 72 hrs by resazurin dye based assay; type: functional, organism-based; settings: IR-173, 72 h
# Leishmania tropica [5] = test: Antileishmanial activity against Leishmania tropica amastigotes incubated for 24 hrs measured by alamar blue staining based fluorescence analysis; type: functional, organism-based
# Leishmania tropica [6] = test: Antileishmanial activity against Leishmania tropica promastigotes incubated for 24 hrs measured by alamar blue staining based fluorescence analysis; type: functional, organism-based
# Leishmania infantum [7] = test: Antileishmanial activity against Leishmania infantum assessed as reduction in parasite growth; type: functional, organism-based
# Leishmania amazonensis [8] = test: Antileishmanial activity against Leishmania amazonensis promastigotes assessed as reduction in parasite viability measured after 48 hrs by alamar blue analysis; type: functional, organism-based
# Leishmania amazonensis [9] = test: Antileishmanial activity against Leishmania amazonensis promastigotes assessed as inhibition of parasite growth at 10 uM relative to control; type: functional; parameters: scale not given: the % may be the effect or the level left
# Leishmania infantum [10] = test: Antileishmanial activity Leishmania infantum promastigotes assessed as reduction in parasite growth incubated for 72 hrs by alamar blue assay; type: functional, organism-based
# Leishmania infantum [11] = test: Antileishmanial activity against Leishmania infantum MHOM/BR/70/BH46 promastigotes assessed as inhibition of parasite growth incubated for 72 hrs by Neubauer chamber based analysis; type: functional, organism-based; settings: MHOM/BR/70/BH46, 72 h
# Leishmania amazonensis [12] = test: Antileishmanial activity against Leishmania amazonensis IFLA/BR/1967/PH8 amastigotes infected in mouse peritoneal macrophage assessed as inhibition of parasite growth measured after 24 hrs by Giemsa staining based analysis; type: functional, organism-based; settings: IFLA/BR/1967/PH8, Peritoneal macrophage cell
# Leishmania major [13] = test: Antileishmanial activity against Leishmania major promastigote assessed as inhibition of parasite growth; type: functional, organism-based
# Leishmania major [14] = test: Antileishmanial activity against Leishmania major IR-173 promastigotes assessed as inhibition of parasite growth incubated for 48 hrs by resazurin dye based assay; type: functional, organism-based; settings: IR-173, 48 h
# Leishmania major [15] = test: Antileishmanial activity against Leishmania major promastigotes assessed as inhibition of parasite growth incubated for 48 hrs by resazurin dye based assay; type: functional, organism-based
# Leishmania donovani [16] = test: Antileishmanial activity against Leishmania donovani promastigotes assessed as reduction in parasite growth; type: functional, organism-based
# Leishmania amazonensis [17] = test: Antileishmanial activity against Leishmania amazonensis amastigotes assessed as reduction in parasite growth; type: functional, organism-based
# Leishmania amazonensis [18] = test: Antileishmanial activity against Leishmania amazonensis promastigotes assessed as reduction in parasite viability after 72 hrs by CCK-8 assay; type: functional, organism-based
# Leishmania mexicana = test: Antileishmanial activity against Leishmania mexicana intracellular amastigotes infected in J774 macrophages assessed as reduction in parasite viability after 72 hrs by MTT based analysis; type: functional, organism-based; settings: J774, 72 h
# Leishmania infantum [19] = test: Antileishmanial activity against Leishmania infantum promastigotes assessed as reduction in parasite viability measured after 48 hrs by MTT assay; type: functional, organism-based
# Leishmania donovani [20] = test: Antileishmanial activity against Leishmania donovani BHU575 promastigotes assessed as cell viability by MTT assay; type: functional, organism-based
# Leishmania tropica [21] = test: Antileishmanial activity against Leishmania tropica promastigotes assessed as inhibition of parasite growth; type: functional, organism-based
# Leishmania amazonensis [22] = test: Antileishmanial activity against Leishmania amazonensis MHOM/BR/1989/166MJO promastigotes assessed as reduction in […] growth; type: functional, organism-based
# Leishmania amazonensis [23] = test: Antileishmanial activity against Leishmania amazonensis MHOM/BR/1989/166MJO promastigotes infected in mouse macrophage assessed as parasite growth inhibition measured after 72 hrs by MTT assay; type: functional, organism-based
# J774.A1 = test: Cytotoxicity against mouse J774.A1 cells assessed as reduction in cell viability incubated for 24 hrs by MTT assay; type: functional
# Leishmania amazonensis [24] = test: Antileishmanial activity against Leishmania amazonensis promastigotes assessed as inhibition of parasite growth; type: functional, organism-based
# Leishmania donovani [25] = test: Antileishmanial activity against Leishmania donovani promastigotes assessed as inhibition of parasite growth incubated for 4 hrs by MTT assay; type: functional, organism-based
# Leishmania amazonensis [26] = test: Antileishmanial activity against Leishmania amazonensis promastigotes assessed as reduction in parasite viability after 48 hrs by MTT assay; type: functional, organism-based
smiles,measurement,setting,value
COc1c2c(cc3c1-c1ccc(OC)c(=O)cc1[C@@H](NC(C)=O)CC3)OCO2,IC50,Leishmania major [1],0.4 µg/mL
same,IC50,Leishmania major [2],8.7 µg/mL
CC[C@H]1CN2CCc3c([nH]c4ccccc34)[C@@H]2C[C@@H]1/C(=C\OC)C(=O)OC,IC50,Leishmania amazonensis [3],1.65 µM
Cc1ccc2c(NCCCCCNC(=O)c3cccc(/C=C/C(=O)c4ccc(C)o4)c3)ccnc2c1,IC50,Leishmania major [4],0.46 µM
Nc1ccc(C(=O)N/N=C2\C(=O)N(CC(O)COc3cc(=O)oc4ccccc34)c3ccccc32)cc1 (configuration not stated),IC50,Leishmania tropica [5],2.85 µM
same,IC50,Leishmania tropica [6],1.62 µM
COc1ccc(Cn2c(C)cc(O)c(C(=O)Nc3ccc(C)cc3)c2=O)cc1,IC50,Leishmania infantum [7],55 µM
CC[C@H]1C[C@@H]2CN3CCc4c([nH]c5ccccc45)[C@](C(=O)OC)(C2)[C@H]13 [CORONARIDINE],IC50,Leishmania amazonensis [8],12.5 µg/mL
same,Activity,Leishmania amazonensis [9],97%
COc1cc2ccc(=O)oc2cc1OC [SCOPARONE],EC50,Leishmania infantum [10],5.2 µM
CCc1ccc(NC(=S)N/N=C\c2c[nH]c3c(C)cc(Br)cc23)cc1,IC50,Leishmania infantum [11],4.36 µM
COc1ccc2nc(C(=O)NCCCN(C)C)ccc2c1,IC50,Leishmania amazonensis [12],5.67 µM
COc1c2ccoc2nc2c(OC)cccc12 [GAMMA-FAGARINE],IC50,Leishmania major [13],> 74.2 µM
CCC[C@H]1CC(=O)Oc2c(C(=O)[C@H](C)[C@H](C)O)c(O)c3c(c21)OC(C)(C)C=C3,IC50,Leishmania major [14],36.5 µg/mL
same,IC50,Leishmania major [15],29.1 µg/mL
CO[C@@H]1C(=O)C[C@H]2O[C@]1(C)n1c3ccccc3c3c4c(c5c6ccccc6n2c5c31)C(=O)NC4,IC50,Leishmania donovani [16],> 0.089 µM
same,IC50,Leishmania amazonensis [17],0.005 µM
same,IC50,Leishmania amazonensis [18],0.037 µM
COc1cc(/C=C/C(=O)c2cccc([N+](=O)[O-])c2)ccc1OCC=C(C)C,IC50,Leishmania mexicana,4.57 µM
Cc1cc(Br)cc2c(/C=N\NC(=S)Nc3ccccc3)c[nH]c12,IC50,Leishmania infantum [11],5.6 µM
CCOC(=O)c1cc2c([nH]c3ccccc32)c(-c2cc3ccccc3n3nnnc23)n1,EC50,Leishmania infantum [19],10.2 µM
CC1=CCC[C@H]2[C@](C)(CC3=CC(=O)C=CC3=O)[C@@H](C)CC[C@]12C [AVARONE],IC50,Leishmania donovani [20],28.2 µM
same,IC50,Leishmania tropica [21],20.3 µM
Cc1cc(O)c(C(=O)Nc2ccccc2)c(=O)n1Cc1ccc(Cl)cc1,IC50,Leishmania infantum [7],55 µM
COc1cc(C(=O)/C=C/c2ccc([N+](=O)[O-])cc2)c(C(C)=O)c2c(OC)cccc12,IC50,Leishmania amazonensis [22],3.3 µM
same,IC50,Leishmania amazonensis [23],18.5 µM
same,CC50,J774.A1,373 µM
COc1cc(/C=C/C(=O)c2ccc([N+](=O)[O-])cc2)ccc1OCC=C(C)C,IC50,Leishmania mexicana,8.22 µM
Cc1cc(O)c(C(=O)Nc2ccccc2)c(=O)n1Cc1cccc(Cl)c1Cl,IC50,Leishmania infantum [7],55 µM
CCOC(=O)c1cc2c([nH]c3ccccc32)c(-c2ccccn2)n1,EC50,Leishmania infantum [19],3.36 µM
O=C(CC[Se]c1ccnc2cc(Cl)ccc12)Nc1ccc([N+](=O)[O-])cc1,IC50,Leishmania amazonensis [12],10.8 µM
COC(=O)C1=CCC[C@@H]2[C@@](C)(CCc3ccco3)[C@H](C(=O)O)CC[C@@]12C,IC50,Leishmania amazonensis [24],0.11 µM
COc1cc2c(c(OC)c1OC)-c1ccc(OC)c(=O)cc1[C@@H](NC(C)=O)CC2 [COLCHICINE],IC50,Leishmania major [1],0.5 µg/mL
same,IC50,Leishmania major [2],10.2 µg/mL
O=c1c2ccccc2nc(/C=C/c2ccc([N+](=O)[O-])cc2)n1-c1ccccc1,IC50,Leishmania donovani [25],0.021 µM
COC(=O)C1=CCC[C@@H]2[C@@](C)(CCc3ccco3)[C@H](C(=O)OC)CC[C@@]12C,IC50,Leishmania amazonensis [26],0.027 µM
C/C(=C\COc1cc(O)cc2oc(=O)ccc12)C/C=C/C(C)(C)OO,EC50,Leishmania infantum [10],20.2 µM
